According to US4169846A, “Cis-platinum (II) complex of trans-l-1,2-diaminocyclohexane” (priority 1976, dated 1979):
Like-named read-outs stand apart in the source and are kept apart here.

What was measured:
[1] = tested on: ascites-tumor Sarcoma 180A; format: in vivo, ddN mice; conditions: for Growth Rate T/C (%): daily from one to five days
Procedure: To test the anti-tumor activity of the compounds of the present invention, cells of ascites-tumor Sarcoma 180A were transplanted by intraperitoneal injection to groups of ddN mice. From one to five days, the test compound was administered by intraperitoneal injection day after day. The ascites of the resulting mice was sampled to evaluate the anti-tumor activity of the test compound by means of the growth rate of the tumor, T/C % (groups with treatment/groups without treatment). In the table, the designations "-", "+", "++" and "+++" mean 100-66%, 65-41%, 40-11% and 10-0%, of the T/C %, respectively.

leukemia P 388 = experiment: Anti-tumor activity on mice against leukemia P 388; format: in vivo, CDF1 mice; conditions: days 1 and 5
Procedure: (§1) To test the anti-tumor activity of the compounds of the present invention, 100,000 cells/mouse of leukemia L 1210 and 1,000,000 cells/mouse of leukemia P 388 were transplanted by intraperitoneal injection to groups of CDF1 mice, respectively. One and 5 days after the transplantation, the test compound was administered by intraperitoneal injection to the mice.
(§2) The anti-tumor activity of the test compound was evaluated by means of T/C %, i.e., 100 times the mean survival period of the groups injected with the test compound divided by the means survival period of the comparison groups which were not injected with the test compound. The value of higher than 120% for L 1210 and higher than 125% for P 388 means that the test compound has a good effect.

leukemia L 1210 = experiment: Anti-tumor activity on mice against leukemia L 1210; format: in vivo, CDF1 mice; conditions: days 1 and 5
Procedure: as §1, §2

male mice (ddN strain) = experiment: Acute toxicity test (intraperitoneal); format: in vivo; conditions: i.p., suspension in 0.3% CMC
Procedure: A suspension of the test substance in 0.3% CMC aqueous solution was intraperitoneally administered to the test mice in a dose amount of 0.5 ml per mouse.

| Compound | Evaluation ([1]; 3 mg/kg i.p.) | Growth Rate T/C (%) ([1]; 3 mg/kg i.p.) | T/C % (leukemia P 388; P 388, 25 mg/kg i.p.) | T/C % (leukemia P 388; P 388, 50 mg/kg i.p.) | T/C % (leukemia P 388; P 388, 100 mg/kg i.p.) | Evaluation ([1]; 1 mg/kg i.p.) | Growth Rate T/C (%) ([1]; 1 mg/kg i.p.) | Evaluation ([1]; 10 mg/kg i.p.) | Growth Rate T/C (%) ([1]; 10 mg/kg i.p.) | also measured |
| --- | --- | --- | --- | --- | --- | --- | --- | --- | --- | --- |
| O=C(O)C(=O)O.[NH-][C@@H]1CCCC[C@H]1[NH-].[Pt+2] (relative stereo) [Compound No. 6, Cis-oxalato(trans-l-1,2-diaminocyclohexane)platinum (II)] | +++ (10-0%) | 9% | 61% | 0% | 0% | – | – | – | – | T/C % (leukemia P 388; P 388, 6.25 mg/kg i.p.): 188% |
| NC1CCCCC1N.[Cl-].[Cl-].[Pt+2] (stereo not drawn) [Compound No. 1, Cis-dichloro(cis-1,2-diaminocyclohexane)Platinum (II)] | +++ (10-0%) | 3% | – | – | – | + (65-41%) | 57% | +++ (10-0%) | 0% | T/C % (leukemia L 1210; L 1210, 6.25 mg/kg i.p.): 198%; T/C % (leukemia L 1210; L 1210, 12.5 mg/kg i.p.): 211%; T/C % (leukemia L 1210; L 1210, 25 mg/kg i.p.): 164%; T/C % (leukemia L 1210; L 1210, 100 mg/kg i.p.): 0%; T/C % (leukemia L 1210; L 1210, 200 mg/kg i.p.): 0%; T/C % (leukemia L 1210; L 1210, 400 mg/kg i.p.): 0%; LD50 (male mice (ddN strain)): 11.3 mg/kg |
| NC1CCCCC1N.[Cl][Pt][Cl] (stereo not drawn) [Compound No. 2, Cis-dichloro(trans-d-1,2-diaminocyclohexane)platinum (II)] | +++ (10-0%) | 1% | – | – | – | ++ (40-11%) | 8% | – | – | T/C % (leukemia L 1210; L 1210, 12.5 mg/kg i.p.): 291%; T/C % (leukemia L 1210; L 1210, 25 mg/kg i.p.): 110%; T/C % (leukemia L 1210; L 1210, 50 mg/kg i.p.): 71%; T/C % (leukemia L 1210; L 1210, 100 mg/kg i.p.): 71%; T/C % (leukemia L 1210; L 1210, 200 mg/kg i.p.): 0%; LD50 (male mice (ddN strain)): 22.5 mg/kg |
| NC1CCCCC1N.[Cl-].[Cl-].[Pt+2] (stereo not drawn) [Compound No. 3, Cis-dichloro(trans-l-1,2-diaminocyclohexane)platinum (II)] | +++ (10-0%) | 2% | – | – | – | ++ (40-11%) | 18% | – | – | T/C % (leukemia L 1210; L 1210, 6.25 mg/kg i.p.): 316%; T/C % (leukemia L 1210; L 1210, 12.5 mg/kg i.p.): 379%; T/C % (leukemia L 1210; L 1210, 25 mg/kg i.p.): 88%; T/C % (leukemia L 1210; L 1210, 50 mg/kg i.p.): 71%; T/C % (leukemia L 1210; L 1210, 100 mg/kg i.p.): 0%; T/C % (leukemia L 1210; L 1210, 200 mg/kg i.p.): 0%; LD50 (male mice (ddN strain)): 14.1 mg/kg |
| NC1CCCCC1N.O=C1[O][Pt][O]C1=O (stereo not drawn) [Compound No. 4, Cis-oxalato(cis-1,2-diaminocyclohexane)platinum (II)] | +++ (10-0%) | 0% | 200% | 0% | 0% | +++ (10-0%) | 0% | +++ (10-0%) | 0% | Growth Rate T/C (%) ([1]; 0.3 mg/kg i.p.): 83% |
| NC1CCCCC1N.O=C1[O][Pt][O]C1=O (stereo not drawn) [Compound No. 5, Cis-oxalato(trans-d-1,2-diaminocyclohexane)platinum (II)] | +++ (10-0%) | 10% | – | – | – | – | – | – | – | T/C % (leukemia P 388; P 388, 10 mg/kg i.p.): 174%; T/C % (leukemia P 388; P 388, 20 mg/kg i.p.): 195%; T/C % (leukemia P 388; P 388, 40 mg/kg i.p.): 0% |
| NC1CCCCC1N.O=C([O-])CC(=O)[O-].[Pt+2] (stereo not drawn) [Compound No. 7, Cis-malonato(cis-1,2-diaminocyclohexane)platinum (II)] | – | – | 142% | 155% | – | – | – | + (65-41%) | 61% | Evaluation ([1]; 30 mg/kg i.p.): +++ (10-0%); Growth Rate T/C (%) ([1]; 30 mg/kg i.p.): 0%; Evaluation ([1]; 100 mg/kg i.p.): +++ (10-0%); Growth Rate T/C (%) ([1]; 100 mg/kg i.p.): 0%; T/C % (leukemia P 388; P 388, 12.5 mg/kg i.p.): 126% |
| NC1CCCCC1N.O=C1CC(=O)[O][Pt][O]1 (stereo not drawn) [Compound No. 8, Cis-malonato(trans-d-1,2-diaminocyclohexane)platinum (II)] | – | – | 138% | 155% | – | – | – | + (65-41%) | 47% | Evaluation ([1]; 30 mg/kg i.p.): +++ (10-0%); Growth Rate T/C (%) ([1]; 30 mg/kg i.p.): 1%; Evaluation ([1]; 100 mg/kg i.p.): +++ (10-0%); Growth Rate T/C (%) ([1]; 100 mg/kg i.p.): 0%; T/C % (leukemia P 388; P 388, 12.5 mg/kg i.p.): 121% |
| NC1CCCCC1N.O=C([O-])CC(=O)[O-].[Pt+2] (stereo not drawn) [Compound No. 9, Cis-malonato(trans-l-1,2-diaminocyclohexane)platinum (II)] | – | 85% | – | – | – | – | – | ++ (40-11%) | 17% | Evaluation ([1]; 30 mg/kg i.p.): + ++; Growth Rate T/C (%) ([1]; 30 mg/kg i.p.): 1%; Evaluation ([1]; 100 mg/kg i.p.): +++ (10-0%); Growth Rate T/C (%) ([1]; 100 mg/kg i.p.): 4%; T/C % (leukemia P 388; P 388, 75 mg/kg i.p.): 202%; T/C % (leukemia P 388; P 388, 150 mg/kg i.p.): 104% |
| CC(C(=O)[O-])C(=O)[O-].NC1CCCCC1N.[Pt+2] [Compound No. 10, Cis-methylmalonato(cis-1,2-diaminocyclohexane)platinum (II)] | – | – | – | – | – | – | – | – | – | T/C % (leukemia P 388; P 388, 20 mg/kg i.p.): 102%; T/C % (leukemia P 388; P 388, 40 mg/kg i.p.): 121%; T/C % (leukemia P 388; P 388, 80 mg/kg i.p.): 133% |
| CC1C(=O)[O][Pt][O]C1=O.NC1CCCCC1N [Compound No. 11, Cis-methylmalonato(trans-d-1,2-diaminocyclohexane)platinum(II)] | – | – | 121% | 138% | 154% | – | – | – | – | – |
| CC(C(=O)[O-])C(=O)[O-].NC1CCCCC1N.[Pt+2] [Compound No. 12, Cis-methylmalonato(trans-l-1,2-diaminocyclohexane)platinum(II)] | – | – | 115% | 122% | 141% | – | – | – | – | – |
| NC1CCCCC1N.[Cl][Pt][Cl] (stereo not drawn) [cis-dichloro (1,2-DAC) Pt(II), reference compound] | +++ (10-0%) | 3% | – | – | – | ++ (40-11%) | 19% | – | – | Evaluation ([1]; 0.3 mg/kg i.p.): ++ (40-11%); Growth Rate T/C (%) ([1]; 0.3 mg/kg i.p.): 12% |
| Cis-uracil(cis-1,2-diaminocyclohexane)platinum (II) [Compound No. 13] | – | – | – | – | 163% | – | – | – | – | T/C % (leukemia P 388; P 388, 200 mg/kg i.p.): 71%; T/C % (leukemia P 388; P 388, 400 mg/kg i.p.): 0% |
| Cis-uracil(trans-d-1,2-diaminocyclohexane)platinum (II) [Compound No. 14] | – | – | – | 140% | 142% | – | – | – | – | T/C % (leukemia P 388; P 388, 200 mg/kg i.p.): 178% |
| Cis-uracil(trans-l-1,2-diaminocyclohexane)platinum (II) [Compound No. 15] | – | – | – | 155% | 181% | – | – | – | – | T/C % (leukemia P 388; P 388, 200 mg/kg i.p.): 178% |
